# Where two headings read alike, the source gives them in different places.
# Assays:
# human GLP-1 receptor = target: T1, human GLP-1 receptor (Homo sapiens, UniProt P43220); assay: cAMP response of HEK-293 cells stably expressing human GLP-1 receptor (HTRF); format: cell-based; details: Table 6; cAMP formation; read-out: EC50 hGLP-1R
# T1 construct: expressed in transfected cells; host or cells: HEK-293
# Experimental: (§1) cAMP content of cells was determined using a kit from Cisbio Corp. (cat. no. 62AM4PEC) based on HTRF (Homogenous Time Resolved Fluorescence). For preparation, cells were split into T175 culture flasks and grown overnight to near confluency in medium (DMEM/10% FBS). Medium was then removed and cells washed with PBS lacking calcium and magnesium, followed by proteinase treatment with accutase (Sigma-Aldrich cat. no. A6964). Detached cells were washed and resuspended in assay buffer (1×HBSS; 20 mM HEPES, 0.1% BSA, 2 mM IBMX) and cellular density determined. They were then diluted to 400000 cells/ml and 25 μl-aliquots dispensed into the wells of 96-well plates. For measurement, 25 μl of test compound in assay buffer was added to the wells, followed by incubation for 30 minutes at room temperature.
# (§2) Potencies of peptidic compounds at the GLP-1, glucagon and GIP receptors were determined by exposing cells expressing human glucagon receptor (hGCG R), human GIP (hGIP R) and human GLP-1 receptor (hGLP-1 R) to the listed compounds at increasing concentrations and measuring the formed cAMP as described in Methods.
# [1] = Solubility testing of exendin-4 derivatives (HPLC-UV of supernatant); format: physicochemical
# Experimental: Prior to the testing of solubility and stability of a peptide batch, its purity (HPLC-UV) was determined. […] Therefore, solutions from solid samples were prepared in different buffer systems with a concentration of 10 mg/mL compound based on the previously determined % purity. HPLC-UV was performed after 2 h of gentle agitation from the supernatant, which was obtained by 20 min of centrifugation at 4500 rpm. […] This analysis also served as starting point (t0) for the stability testing.
# [2] = Stability testing in solution, 7 days at 40° C. (% remaining peptide, HPLC-UV); format: physicochemical
# Experimental: After that time course, the sample was centrifuged for 20 min at 4500 rpm and 0.2 μL of the supernatant were analysed with HPLC-UV.
# For determination of the amount of the remaining peptide, the peak areas of the target compound at t0 and t7 were compared, resulting in “% remaining peptide”, following the equation % remaining peptide=[(peak area peptide t7)×100]/peak area peptide t0.
# The stability is expressed as “% remaining peptide”.
# human glucagon receptor = target: T2, human glucagon receptor (Homo sapiens, UniProt P47871); assay: cAMP response of HEK-293 cells stably expressing human glucagon receptor (HTRF); format: cell-based; details: Table 6; cAMP formation; read-out: EC50 hGlucagon-R
# T2 construct: expressed in transfected cells; host or cells: HEK-293
# T2 sequence (P47871 26-477): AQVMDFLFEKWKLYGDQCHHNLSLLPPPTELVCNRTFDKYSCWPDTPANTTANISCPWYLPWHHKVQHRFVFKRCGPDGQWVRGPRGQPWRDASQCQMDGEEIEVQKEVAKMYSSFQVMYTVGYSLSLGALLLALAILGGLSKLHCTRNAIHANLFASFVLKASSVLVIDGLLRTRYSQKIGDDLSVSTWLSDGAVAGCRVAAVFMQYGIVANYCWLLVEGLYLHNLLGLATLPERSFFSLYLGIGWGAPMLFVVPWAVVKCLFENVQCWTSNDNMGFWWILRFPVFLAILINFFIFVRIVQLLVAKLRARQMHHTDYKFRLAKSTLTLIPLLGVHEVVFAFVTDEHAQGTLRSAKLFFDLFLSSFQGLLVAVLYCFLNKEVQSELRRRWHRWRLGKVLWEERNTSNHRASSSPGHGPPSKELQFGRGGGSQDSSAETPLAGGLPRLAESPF
# Experimental: as §1, §2
# human GIP receptor = target: T3, human GIP receptor (Homo sapiens, UniProt P48546); assay: cAMP response of HEK-293 cells stably expressing human GIP receptor (HTRF); format: cell-based; details: Table 6; cAMP formation; read-out: EC50 hGIP-R
# T3 construct: expressed in transfected cells; host or cells: HEK-293
# T3 sequence (P48546 22-466): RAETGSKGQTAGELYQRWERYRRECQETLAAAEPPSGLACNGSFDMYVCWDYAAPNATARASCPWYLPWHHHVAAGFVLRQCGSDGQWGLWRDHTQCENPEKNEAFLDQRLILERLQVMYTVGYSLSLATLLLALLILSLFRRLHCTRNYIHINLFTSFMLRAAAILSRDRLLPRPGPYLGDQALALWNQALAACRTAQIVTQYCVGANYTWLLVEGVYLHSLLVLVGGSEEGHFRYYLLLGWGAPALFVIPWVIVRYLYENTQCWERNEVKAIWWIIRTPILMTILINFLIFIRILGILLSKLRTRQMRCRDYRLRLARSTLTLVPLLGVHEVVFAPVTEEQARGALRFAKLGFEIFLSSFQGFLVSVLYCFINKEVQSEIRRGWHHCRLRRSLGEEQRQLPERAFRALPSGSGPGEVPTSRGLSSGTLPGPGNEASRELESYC
# Experimental: as §1, §2
# T1 sequence (P43220 24-463): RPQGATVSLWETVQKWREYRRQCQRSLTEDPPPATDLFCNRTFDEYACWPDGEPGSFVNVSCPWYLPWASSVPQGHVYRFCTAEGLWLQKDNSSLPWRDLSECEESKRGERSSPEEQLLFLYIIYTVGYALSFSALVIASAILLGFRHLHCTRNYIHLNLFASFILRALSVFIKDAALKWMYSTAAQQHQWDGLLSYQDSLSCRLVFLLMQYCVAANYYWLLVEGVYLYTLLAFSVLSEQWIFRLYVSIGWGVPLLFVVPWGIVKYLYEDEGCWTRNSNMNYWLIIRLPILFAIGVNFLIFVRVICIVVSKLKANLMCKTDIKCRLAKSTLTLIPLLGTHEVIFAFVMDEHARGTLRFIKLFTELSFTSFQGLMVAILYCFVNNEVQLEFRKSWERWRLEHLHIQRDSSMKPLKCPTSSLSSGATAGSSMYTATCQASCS
Structure (SMILES),EC50 (human GLP-1 receptor) [nM],EC50 (human glucagon receptor) [nM],EC50 (human GIP receptor) [nM],other results
CCCCCCCCCCCCCCCC(=O)N[C@@H](CCC(=O)N[C@@H](CCC(=O)NCCCC[C@H](NC(=O)[C@H](CCC(N)=O)NC(=O)[C@H](CCCCN)NC(=O)[C@H](CO)NC(=O)[C@H](CC(C)C)NC(=O)[C@H](CC(=O)O)NC(=O)[C@H](CO)NC(=O)[C@@H](NC(=O)[C@H](Cc1ccccc1)NC(=O)[C@@H](NC(=O)CNC(=O)[C@H](CCC(N)=O)NC(=O)C(C)(C)NC(=O)[C@@H](N)Cc1c[nH]cn1)[C@@H](C)O)[C@@H](C)O)C(=O)N[C@@H](CCC(=O)O)C(=O)N[C@@H](CCC(=O)O)C(=O)N[C@@H](CCC(=O)O)C(=O)N[C@@H](C)C(=O)N[C@H](C(=O)N[C@@H](CCCNC(=N)N)C(=O)N[C@@H](CC(C)C)C(=O)N[C@@H](Cc1ccccc1)C(=O)N[C@H](C(=O)N[C@@H](CCC(=O)O)C(=O)N[C@@H](Cc1c[nH]c2ccccc12)C(=O)N[C@@H](CC(C)C)C(=O)N[C@@H](CCCCN)C(=O)N[C@@H](C)C(=O)NCC(=O)NCC(=O)N1CCC[C@H]1C(=O)N[C@@H](CO)C(=O)N[C@@H](CO)C(=O)NCC(=O)N[C@@H](C)C(=O)N1CCC[C@H]1C(=O)N1CCC[C@H]1C(=O)N1CCC[C@H]1C(=O)N[C@@H](CO)C(N)=O)[C@@H](C)CC)C(C)C)C(=O)O)C(=O)O [compound 24],0.0045,–,–,–
CCCCCCCCCCCCCCCCCC(=O)N[C@@H](CCC(=O)NCCCC[C@H](NC(=O)[C@H](CCC(N)=O)NC(=O)[C@H](CCCCN)NC(=O)[C@H](CO)NC(=O)[C@H](CC(C)C)NC(=O)[C@H](CC(=O)O)NC(=O)[C@H](CO)NC(=O)[C@@H](NC(=O)[C@H](Cc1ccccc1)NC(=O)[C@@H](NC(=O)CNC(=O)[C@H](Cc1c[nH]cn1)NC(=O)[C@H](CO)NC(=O)[C@@H](N)Cc1c[nH]cn1)[C@@H](C)O)[C@@H](C)O)C(=O)N[C@@H](CCC(=O)O)C(=O)N[C@@H](CCC(=O)O)C(=O)N[C@@H](CCC(=O)O)C(=O)N[C@@H](C)C(=O)N[C@H](C(=O)N[C@@H](CCCNC(=N)N)C(=O)N[C@@H](CC(C)C)C(=O)N[C@@H](Cc1ccccc1)C(=O)N[C@H](C(=O)N[C@@H](CCC(=O)O)C(=O)N[C@@H](Cc1c[nH]c2ccccc12)C(=O)N[C@@H](CC(C)C)C(=O)N[C@@H](CCCCN)C(=O)N[C@@H](C)C(=O)NCC(=O)NCC(=O)N1CCC[C@H]1C(=O)N[C@@H](CO)C(=O)N[C@@H](CO)C(=O)NCC(=O)N[C@@H](C)C(=O)N1CCC[C@H]1C(=O)N1CCC[C@H]1C(=O)N1CCC[C@H]1C(=O)N[C@@H](CO)C(N)=O)[C@@H](C)CC)C(C)C)C(=O)O [compound 10],–,–,–,"solubility at 2 h ([1]; pH 4.5, target concentration 10 mg/ml, 2 h agitation, read-out: Solubility (pH 4.5)): > 5000 µg/mL; solubility at 2 h ([1]; pH 7.4, target concentration 10 mg/ml, 2 h agitation, read-out: Solubility (pH 7.4)): > 5000 µg/mL; Stability (pH 4.5), % remaining peptide ([2]; pH 4.5, 7 days at 40° C. in solution): 92.7%; Stability (pH 7.4), % remaining peptide ([2]; pH 7.4, 7 days at 40° C. in solution): 93.4%"
CCCCCCCCCCCCCCCCCC(=O)N[C@@H](CCC(=O)NCCCC[C@H](NC(=O)[C@H](CCC(N)=O)NC(=O)[C@H](CCCCN)NC(=O)[C@H](CO)NC(=O)[C@H](CC(C)C)NC(=O)[C@H](CC(=O)O)NC(=O)[C@H](CO)NC(=O)[C@@H](NC(=O)[C@H](Cc1ccccc1)NC(=O)[C@@H](NC(=O)CNC(=O)[C@H](Cc1c[nH]cn1)NC(=O)C(C)(C)NC(=O)[C@@H](N)Cc1c[nH]cn1)[C@@H](C)O)[C@@H](C)O)C(=O)N[C@@H](CCC(=O)O)C(=O)N[C@@H](CCC(=O)O)C(=O)N[C@@H](CCC(=O)O)C(=O)N[C@@H](C)C(=O)N[C@H](C(=O)N[C@@H](CCCNC(=N)N)C(=O)N[C@@H](CC(C)C)C(=O)N[C@@H](Cc1ccccc1)C(=O)N[C@H](C(=O)N[C@@H](CCC(=O)O)C(=O)N[C@@H](Cc1c[nH]c2ccccc12)C(=O)N[C@@H](CC(C)C)C(=O)N[C@@H](CCCCN)C(=O)N[C@@H](C)C(=O)NCC(=O)NCC(=O)N1CCC[C@H]1C(=O)N[C@@H](CO)C(=O)N[C@@H](CO)C(=O)NCC(=O)N[C@@H](C)C(=O)N1CCC[C@H]1C(=O)N1CCC[C@H]1C(=O)N1CCC[C@H]1C(=O)N[C@@H](CO)C(N)=O)[C@@H](C)CC)C(C)C)C(=O)O [compound 7],0.0065,0.0058,0.0256,–
CCCCCCCCCCCCCCCC(=O)N[C@@H](CCC(=O)N[C@@H](CCC(=O)NCCCC[C@H](NC(=O)[C@H](CCC(N)=O)NC(=O)[C@H](CCCCN)NC(=O)[C@H](CO)NC(=O)[C@H](CC(C)C)NC(=O)[C@H](CC(=O)O)NC(=O)[C@H](CO)NC(=O)[C@@H](NC(=O)[C@H](Cc1ccccc1)NC(=O)[C@@H](NC(=O)CNC(=O)[C@H](Cc1c[nH]cn1)NC(=O)[C@@H](CO)NC(=O)[C@@H](N)Cc1c[nH]cn1)[C@@H](C)O)[C@@H](C)O)C(=O)N[C@@H](CCC(=O)O)C(=O)N[C@@H](CCC(=O)O)C(=O)N[C@@H](CCC(=O)O)C(=O)N[C@@H](C)C(=O)N[C@H](C(=O)N[C@@H](CCCNC(=N)N)C(=O)N[C@@H](CC(C)C)C(=O)N[C@@H](Cc1ccccc1)C(=O)N[C@H](C(=O)N[C@@H](CCC(=O)O)C(=O)N[C@@H](Cc1c[nH]c2ccccc12)C(=O)N[C@@H](CC(C)C)C(=O)N[C@@H](CCCCN)C(=O)N[C@@H](C)C(=O)NCC(=O)NCC(=O)N1CCC[C@H]1C(=O)N[C@@H](CO)C(=O)N[C@@H](CO)C(=O)NCC(=O)N[C@@H](C)C(=O)N1CCC[C@H]1C(=O)N1CCC[C@H]1C(=O)N1CCC[C@H]1C(=O)N[C@@H](CO)C(N)=O)[C@@H](C)CC)C(C)C)C(=O)O)C(=O)O [compound 13],–,0.0225,0.079,–
CCCCCCCCCCCCCCCCCC(=O)N[C@@H](CCC(=O)NCCCC[C@H](NC(=O)[C@H](CCC(N)=O)NC(=O)[C@H](CCCCN)NC(=O)[C@H](CO)NC(=O)[C@H](CC(C)C)NC(=O)[C@H](CC(=O)O)NC(=O)[C@H](CO)NC(=O)[C@@H](NC(=O)[C@H](Cc1ccccc1)NC(=O)[C@@H](NC(=O)CNC(=O)[C@H](Cc1c[nH]cn1)NC(=O)[C@@H](CO)NC(=O)[C@@H](N)Cc1c[nH]cn1)[C@@H](C)O)[C@@H](C)O)C(=O)N[C@@H](CCC(=O)O)C(=O)N[C@@H](CCC(=O)O)C(=O)N[C@@H](CCC(=O)O)C(=O)N[C@@H](C)C(=O)N[C@H](C(=O)N[C@@H](CCCNC(=N)N)C(=O)N[C@@H](CC(C)C)C(=O)N[C@@H](Cc1ccccc1)C(=O)N[C@H](C(=O)N[C@@H](CCC(=O)O)C(=O)N[C@@H](Cc1c[nH]c2ccccc12)C(=O)N[C@@H](CC(C)C)C(=O)N[C@@H](CCCCN)C(=O)N[C@@H](C)C(=O)NCC(=O)NCC(=O)N1CCC[C@H]1C(=O)N[C@@H](CO)C(=O)N[C@@H](CO)C(=O)NCC(=O)N[C@@H](C)C(=O)N1CCC[C@H]1C(=O)N1CCC[C@H]1C(=O)N1CCC[C@H]1C(=O)N[C@@H](CO)C(N)=O)[C@@H](C)CC)C(C)C)C(=O)O [compound 9],–,–,–,solubility at 2 h ([1]; pH 4.5): > 5000 µg/mL; solubility at 2 h ([1]; pH 7.4): > 5000 µg/mL
CCCCCCCCCCCCCCCCCC(=O)N[C@@H](CCC(=O)NCCCC[C@H](NC(=O)[C@H](CCC(N)=O)NC(=O)[C@H](CCCCN)NC(=O)[C@H](CO)NC(=O)[C@H](CC(C)C)NC(=O)[C@H](CC(=O)O)NC(=O)[C@H](CO)NC(=O)[C@@H](NC(=O)[C@H](Cc1ccccc1)NC(=O)[C@@H](NC(=O)CNC(=O)[C@H](Cc1c[nH]cn1)NC(=O)[C@@H](CO)NC(=O)[C@@H](N)Cc1c[nH]cn1)[C@@H](C)O)[C@@H](C)O)C(=O)N[C@@H](CCC(=O)O)C(=O)N[C@@H](CCC(=O)O)C(=O)N[C@@H](CCC(=O)O)C(=O)N[C@@H](C)C(=O)N[C@H](C(=O)N[C@@H](CCCNC(=N)N)C(=O)N[C@@H](CC(C)C)C(=O)N[C@@H](Cc1ccccc1)C(=O)N[C@H](C(=O)N[C@@H](CCC(=O)O)C(=O)N[C@@H](Cc1c[nH]c2ccccc12)C(=O)N[C@@H](CC(C)C)C(=O)N[C@@H](CCCCN)C(=O)N[C@@H](C)C(=O)NCC(=O)NCC(=O)N1CCC[C@H]1C(=O)N[C@@H](CO)C(=O)N[C@@H](CO)C(=O)NCC(=O)N[C@@H](C)C(=O)N1CCC[C@H]1C(=O)N1CCC[C@H]1C(=O)N1CCC[C@H]1C(=O)N[C@@H](CO)C(N)=O)[C@@H](C)CC)C(C)C)C(=O)O [compound 25],0.0081,0.0399,0.407,–

# Source: patent US9771406B2, “Peptidic dual GLP-1/glucagon receptor agonists derived from exendin-4” (priority 2014, dated 2017)
